Reference: patent US10239957B2, “Peptide containing conjugates for dual molecular delivery of oligonucleotides” (Merck Sharp & Dohme Corp., priority 2013, dated 2019)
Where no end group is shown, it is not given here. [ ]: non-standard residue; d: D form. TGN = not defined here

System: CTNNB1
Test: In vitro DMD assay: mRNA silencing enhancement by peptide conjugates after siRNA-IV treatment
Type: cell-based
Conditions: primary mouse hepatocytes, siRNA-IV 125 nM baseline
Protocol: Cryopreserved primary Mouse hepatocytes (Bioreclamation, LLC) were placed into Collagen Type I coated 96-well plates at 25,000 cells per well in serum-containing InVitroGRO CP media (Bioreclamation, LLC) and allowed 5 hours to attach. Media was replaced with InVitroGRO HI media and cells were treated with siRNA-IV at 125 nM [siRNA] for 1 hour. Media was replaced with InVitroGRO HI media and cells were treated for approximately 16 hours with experimental Peptide conjugates at various concentrations to establish a dose-response curve. Peptide conjugates were washed out after 16 hours with InVitroGRO HI media and cells allowed to incubate for an additional 24 hours. Cells were then lysed and mRNA expression of the siRNA target was measured by RT-qPCR (Applied Biosystems Taqman reagents). mRNA silencing activity of each Peptide conjugate was expressed as an enhancement above the baseline activity of 125 nM siRNA-IV alone with respect to the untreated cells and all siRNA target Ct values were normalized to PPIB mRNA for each well (dddCt) and summarized.
The structure of TGN-S-S-peptide is shown below and the activity data is listed in Table 5 (siRNA-IV concentration was kept at […]).

Row | Substance | In vitro dddCt (vs. baseline SCE dose) (Targeted peptide dose 8 nM) | In vitro dddCt (vs. baseline SCE dose) (Targeted peptide dose 40 nM) | In vitro dddCt (vs. baseline SCE dose) (Targeted peptide dose 200 nM) | In vitro dddCt (vs. baseline SCE dose) (Targeted peptide dose 1000 nM) | In vitro dddCt (vs. baseline SCE dose) (Targeted peptide dose 5000 nM) | further results
1 | TGN-S-S-SEQ ID NO: 1633(D) ([dC]G[dL][dF]G[dE][dI][dH][dH][dL][dI][dH][dH]G[dL][dE][dN][dL][dI][dD][dW][dW][dN]G; not fully specified (residue 1); also: TGN attached via disulfide; listed as Homo sapiens) | – | – | – | – | – | In vitro dddCt (vs. baseline SCE dose) (Targeted peptide dose 125 nM): −0.39; In vitro dddCt (vs. baseline SCE dose) (Targeted peptide dose 625 nM): −0.57; In vitro dddCt (vs. baseline SCE dose) (Targeted peptide dose 3125 nM): −0.37; In vitro dddCt (vs. baseline SCE dose) (Targeted peptide dose 15625 nM): −0.69
2 | TGN-S-S-SEQ ID NO: 1654 (D)) ([dC]G[dL][dL][dE][dE][dI][dE][dE][dL][dL][dE][dE]G[dL][dE][dN][dL][dI][dD][dW]G[dN][dS]; not fully specified (residue 1); also: TGN attached via disulfide; listed as Homo sapiens) | – | – | – | – | – | In vitro dddCt (vs. baseline SCE dose) (Targeted peptide dose 125 nM): −1.05
3 | TGN-S-S-SEQ ID NO: 1717 (L) (C(TGN)FLGALFHALSHLLENLIDWWNG; reading uncertain; also: TGN disulfide conjugate at Cys1; listed as Homo sapiens) | – | – | – | – | – | In vitro dddCt (vs. baseline SCE dose) (Targeted peptide dose 25 nM): 0.61; In vitro dddCt (vs. baseline SCE dose) (Targeted peptide dose 625 nM): 0.37; In vitro dddCt (vs. baseline SCE dose) (Targeted peptide dose 3125 nM): 0.15
4 | TGN-S-S-SEQ ID NO: 1738 (D) (G[dL][dF]G[dE][dI][dE][dE][dL][dI][dE][dE]G[dL][dE][dN][dL][dI][dD][dW]G[dN]G[dL][dA][dE][dL][dA][dE][dA][dL][dE][dA][dL][dA][dA]GG[dS][dC]; not fully specified (residue 40); also: disulfide to TGN peptide via Cys40; listed as Homo sapiens) | −0.24 | −0.67 | −1.57 | −1.69 | −2.19 | –
5 | TGN-S-S-SEQ ID NO: 1740(D) (G[dL][dF][dE][dA][dI][dE]G[dF][dI][dE][dN]G[dW][dE]G[dL][dA][dE][dL][dA][dE][dA][dL][dE][dA][dL][dA][dA]GG[dS][dC]; not fully specified (residue 33); also: disulfide to TGN peptide via Cys33; listed as Homo sapiens) | −0.19 | −0.46 | −1.29 | −2.3 | −2.98 | –
6 | TGN-S-S-SEQ ID NO: 1741 (L) (GLFGALAEALAEALAEHLAEALAEALEALAAGGSC(TGN); reading uncertain; also: TGN linked to Cys via disulfide, TGN not defined; listed as Homo sapiens) | 0.03 | −0.11 | −0.25 | 0.98 | −0.58 | In vitro dddCt (vs. baseline SCE dose) (Targeted peptide dose 24 nM): 0; In vitro dddCt (vs. baseline SCE dose) (Targeted peptide dose 120 nM): 0.02; In vitro dddCt (vs. baseline SCE dose) (Targeted peptide dose 600 nM): −0.08; In vitro dddCt (vs. baseline SCE dose) (Targeted peptide dose 3000 nM): −0.4; In vitro dddCt (vs. baseline SCE dose) (Targeted peptide dose 15000 nM): −0.25
7 | TGN-S-S-SEQ ID NO: 1747 (D) ([dC]G[dL][dF]G[dE][dI][dE][dE][dL][dL][dE][dE]G[dL][dE][dN][dL][dI][dD][dW]G[dN]G; not fully specified (residue 1); also: disulfide to TGN peptide via Cys1; listed as Homo sapiens) | −0.23 | −0.7 | −1.53 | −2.08 | −1.98 | –
8 | TGN-S-S-SEQ ID NO: 1748 (D) ([dC]G[dL][dF]G[dE][dI][dE][dE][dL][dI][dE][dE][dA][dL][dE][dN][dL][dI][dD][dW]G[dN]G; not fully specified (residue 1); also: disulfide to TGN peptide via Cys1; listed as Homo sapiens) | −0.2 | −0.5 | −1.38 | −1.92 | −2.01 | –
9 | TGN-S-S-SEQ ID NO: 1749 (D) ([dC]G[dL][dF]G[dE][dI][dE][dE][dL][dI][dE][dE]G[dF][dE][dN][dL][dI][dD][dW]G[dN]G; not fully specified (residue 1); also: disulfide to TGN peptide via Cys1; listed as Homo sapiens) | 0.02 | −0.04 | −0.26 | −0.22 | −0.11 | –
10 | TGN-S-S-SEQ ID NO: 1751 (D) ([dC]G[dL][dF]G[dE][dI][dE][dE][dL][dI][dE][dE]G[dW][dE][dN][dL][dI][dD][dW]G[dN]G; not fully specified (residue 1); also: disulfide to TGN peptide via Cys1; listed as Homo sapiens) | −0.1 | −0.12 | 0.09 | −0.05 | 0.01 | –
11 | TGN-S-S-SEQ ID NO: 1752 (D) ([dC]G[dL][dF]G[dE][dI][dE][dE][dW][dI][dE][dE]G[dL][dE][dN][dL][dI][dD][dW]G[dN]G; not fully specified (residue 1); also: disulfide to TGN peptide via Cys1; listed as Homo sapiens) | −0.25 | −0.48 | −0.89 | −0.95 | −1.02 | –
12 | TGN-S-S-SEQ ID NO: 1753 (D) ([dC]G[dL][dF]G[dE][dI][dE][dE][dF][dI][dE][dE]G[dL][dE][dN][dL][dI][dD][dW]G[dN]G; not fully specified (residue 1); also: disulfide to TGN peptide via Cys1; listed as Homo sapiens) | 0.15 | 0.05 | −0.2 | −0.18 | −0.16 | –
13 | TGN-S-S-SEQ ID NO: 1755 (D) ([dC]G[dL][dF]G[dE][dI][dE][dE][dL][dF][dE][dE]G[dL][dE][dN][dL][dI][dD][dW]G[dN]G; not fully specified (residue 1); also: disulfide to TGN peptide via Cys1; listed as Homo sapiens) | −0.01 | −0.24 | −0.38 | −0.49 | −0.24 | –
14 | TGN-S-S-SEQ ID NO: 1758 (D) ([dC]G[dL][dF]G[dE][dI][dE][dE][dL][dI][dE][dE]G[dL][dE][dE][dL][dI][dD][dW]G[dN]G; not fully specified (residue 1); also: disulfide to TGN peptide via Cys1; listed as Homo sapiens) | 0.04 | −0.02 | −0.38 | −0.77 | −0.64 | –
15 | TGN-S-S-SEQ ID NO: 1759 (D) ([dC]G[dL][dF]G[dE][dI][dE][dE][dL][dI][dE][dE]G[dL][dE][dS][dL][dI][dD][dW]G[dN]G; not fully specified (residue 1); also: disulfide to TGN peptide via Cys1; listed as Homo sapiens) | −0.15 | −0.87 | −1.65 | −1.66 | – | –
16 | TGN-S-S-SEQ ID NO: 1760 (D) ([dC]G[dL][dF]G[dE][dI][dE][dE][dL][dI][dE][dE]G[dL][dE][dQ][dL][dI][dD][dW]G[dN]G; not fully specified (residue 1); also: disulfide to TGN peptide via Cys1; listed as Homo sapiens) | −0.09 | −1.01 | −1.6 | −1.8 | −1.46 | –
